Source: US9321798B2, “Phosphoramidite derivatives of gemcitabine for use in the treatment of cancer” (NuCana BioMed Limited, priority 2010, dated 2016)

Test system: Human colon cancer cell line HRT18
Test: MTT cytotoxicity / cell proliferation assay in HRT18 colon tumour cell line
Type: cell-based
Conditions: HRT-18, HRT18 cells, 72 h incubation, 0.128-2000 nM, read-out: EC50 (nM) Colorectal cell HRT18
Text: The compounds can be assayed by many in vitro or in vivo methods, but in the first instance a cell proliferation assay is rapid and informative. Many tumour cell lines can be used for the assay, we herein report typical data for target compounds in HRT18 colon tumour cell line, using standard MTT assay methods, typical in many laboratories.
Human colon cancer cell line HRT18 were purchased from the European Collection of Animal Cell Cultures (ECACC, Salisbury, England). Cytoxicity assay was based on MTT assay as we previously reported. The method is based on the ability of viable mitochondria to convert MTT, a soluble tetrazolium salt (3-[4,5-dimethylthiazd-2-yl]-2,5-diphenyltetrazolium bromide) into an insoluble formazan precipitate that is dissolved and quantified by spectrophotometry. A 96-well culture cell culture plate was used. Cells were counted with a haemocytomete counting chamber and a specific number (4000 per well) of cells were seeded to each well with culture medium (DMEM). Compounds, dissolved in DMSO, were series diluted (1:5) in culture medium, to cover a final concentration range between 0.128 and 2000 nM. The culture plate was incubated for 72 h at 37° C. The cells were washed twice with BSS. A solution of MTT in 0.5 mg/mL in culture medium was added into each well. The culture plate was then incubated at 37° C. for 4 h. MTT was then removed by aspiration. The crystals produced by MTT reagent within the cells were then extracted by the addition of 100 µL of Triton X100 (10% in water). The cells were incubated at 4° C. for 24 h. The absorbance of the colorimetric products was then measured at a wavelength of 540 nm using a spectrophotometer (Titertecek).

SMILES | EC50
C[C@H](NP(=O)(N[C@@H](C)C(=O)OCc1ccccc1)OC[C@H]1O[C@@H](n2ccc(N)nc2=O)C(F)(F)C1O)C(=O)OCc1ccccc1 (stereo partly drawn) [CPF457, 2′-Deoxy-2′,2′-difluoro-D-cytidine-5′-O-bis(benzoxy-L-alaninyl)] phosphate] | 14 nM
C[C@H](NP(=O)(N[C@@H](C)C(=O)OC1CCCCC1)OC[C@H]1O[C@@H](n2ccc(N)nc2=O)C(F)(F)C1O)C(=O)OC1CCCCC1 (stereo partly drawn) [CPF458] | 31 nM
CCOC(=O)[C@H](C)NP(=O)(N[C@@H](C)C(=O)OCC)OC[C@H]1O[C@@H](n2ccc(N)nc2=O)C(F)(F)C1O (stereo partly drawn) [CPF459, 2′-Deoxy-2′,2′-difluoro-D-cytidine-5′-O-bis(ethoxy-L-alaninyl)phosphate] | 42 nM
C[C@H](NP(=O)(N[C@@H](C)C(=O)OCC(C)(C)C)OC[C@H]1O[C@@H](n2ccc(N)nc2=O)C(F)(F)C1O)C(=O)OCC(C)(C)C (stereo partly drawn) [CPF460] | 1.6 nM
CC(C)OC(=O)[C@H](C)NP(=O)(N[C@@H](C)C(=O)OC(C)C)OC[C@H]1O[C@@H](n2ccc(N)nc2=O)C(F)(F)C1O (stereo partly drawn) [CPF461] | 3.2 nM
Nc1ccn([C@@H]2O[C@H](CO)[C@@H](O)C2(F)F)c(=O)n1 [Gemcitabine, gemcitabine] | 64 nM
